Format in all cases: in vivo, ApoE−/− mice
For one experiment, the system named is Osteopontin. In words: Aortic mural gene expression, RT-PCR (TLDA). The following applies: fold change over ApoE−/− control; aorta, 28 days Ang II infusion. The procedure:
(§1) ApoE−/− mice used in this study were divided into different pretreatment groups: 1) Fluvastatin-MF; 2) Doxycycline-MD; 3) Irbesartan-MI; 4) Telmisartan-MT; 5) Control (water) and fed medicated chow or medicated drinking water 1 week prior to pump implantation. AngII (1000 ng·kg^−1 of body weight·min^−1) was infused subcutaneously via Alzet mini-osmotic pumps for 28 days. All mice were maintained on the medicated chow (MI & MT) or medicated drinking water (MF & MD) treatments which were delivered daily for a total of 28 days following pump implantation.
(§2) In order to determine the effect of the various treatments on the progressive enlargement of the experimental AAAs the mice were followed with high frequency trans-abdominal ultrasound. Maximum aortic diameter was measured and recorded prior to pump implantation and then at 3, 7, 14, 21, and 28 days. All mice were sacrificed 28 days after pump implantation. Aortae were harvested and subjected to either histological analysis (Elastic Masson trichome, MAC2, CD31 and TUNEL staining) and analysis of mural gene expression. Plasma drug concentrations of experimental compounds were quantified on the day of sacrifice using high performance liquid chromatography (HPLC).
(§3) Total RNA was extracted from homogenized aortas using the Qiazol lysis reagent and RNeasy Lipid Tissue Mini kit. DNAse treatment was included in the procedure. RNA concentration was determined utilizing the Quant iT RNA assay kit. Complimentary deoxyribonucleic acid (cDNA) was synthesized from 1 μg RNA using High reverse cDNA transcription kit. Briefly the reaction tubes containing RNA, reverse transcriptase, buffer, RNAse inhibitor, and nuclease free water were incubated at 25° C. for 10 minutes to allow annealing. Reverse transcription was performed at 37° C. for 120 min, followed by a 5 sec incubation at 85° C. to inactivate the reverse transcriptase enzyme. The cDNA samples were cooled at 4° C. and stored at −80° C. until further use.
(§4) Real time PCR was performed using a 384-well Taqman low density array (TLDA) card. Each sample specific PCR mix contained 50 ng of total RNA converted to cDNA. The PCR reaction for Taqman assays contained 50 μl Master Mix (Taqman Universal PCR Master Mix,) and 50 ul of cDNA and RNAase free water. Assays were performed to include appropriate controls (no template control). The RT-PCR protocol included an initial step of 50° C. (2 minutes) […], denaturation by a hot start at 95° C. for 10 min, followed by 40 cycles of a 2 step program (denaturation at 95° C. for 15 secs for primer annealing/extension at 60° C. for 1 min). Fluorescence data was collected at 60° C. Fluorescence was quantified with ABI PRISM 7900HT Sequence Detection System. To verify amplification of a specific target cDNA, data generated was analyzed using SDS 2.2.3 software (Sequence Detection System Software, Applied Biosystems). For all amplification plots, the baseline data were set with the automatic CT function available with SDS 2.2.3 calculating the optimal baseline range and threshold value by using the AutoCT algorithm. According to the manufacturer's instruction, a CT value of ≧39 corresponds to nonspecific amplification marking the limits of detection. For endogenous control GAPDH was normalized to B2M. For relative quantification (RQ), pooled ApoE−/− control was used as the calibrator (with expression equal to 1).

Another experiment deals with Vav1. Description: Aortic mural gene expression, RT-PCR (TLDA). The following applies: fold change over ApoE−/− control; aorta, 28 days Ang II infusion. As to the method: as §1, §2, §3, §4
Another experiment concerns MMP-12. In words: Aortic mural gene expression, RT-PCR (TLDA). Particulars: fold change over ApoE−/− control; aorta, 28 days Ang II infusion. As to the method: as §1, §2, §3, §4
The subject of the next experiment is TNF-α. Description: Aortic mural gene expression, RT-PCR (TLDA). Particulars: fold change over ApoE−/− control; aorta, 28 days Ang II infusion. As to the method:
as §1, §2, §3, §4

A further experiment deals with CCL2. In words: Aortic mural gene expression, RT-PCR (TLDA). Particulars: fold change over ApoE−/− control; aorta, 28 days Ang II infusion. The procedure: as §1, §2, §3, §4
The next experiment relates to Cathepsin S. In words: Aortic mural gene expression, RT-PCR (TLDA). Particulars: fold change over ApoE−/− control; aorta, 28 days Ang II infusion. As to the method: as §1, §2, §3, §4
The next experiment relates to MMP-8. Description: Aortic mural gene expression, RT-PCR (TLDA). The following applies: fold change over ApoE−/− control; aorta, 28 days Ang II infusion. As to the method: as §1, §2, §3, §4
The next experiment deals with ITGB2. In words: Aortic mural gene expression, RT-PCR (TLDA). Particulars: fold change over ApoE−/− control; aorta, 28 days Ang II infusion. The procedure: as §1, §2, §3, §4
A further experiment has as its system LOX. In words: Aortic mural gene expression, RT-PCR (TLDA). The following applies: fold change over ApoE−/− control; aorta, 28 days Ang II infusion. As to the method: as §1, §2, §3, §4
The next experiment relates to Tgfβ1. In words: Aortic mural gene expression, RT-PCR (TLDA). Particulars: fold change over ApoE−/− control; aorta, 28 days Ang II infusion. As to the method: as §1, §2, §3, §4
For a further experiment, the system named is CCR2. Description: Aortic mural gene expression, RT-PCR (TLDA). The following applies: fold change over ApoE−/− control; aorta, 28 days Ang II infusion. The procedure:
as §1, §2, §3, §4

The test system of a further experiment is HMOX 1. Description: Aortic mural gene expression, RT-PCR (TLDA). The following applies: fold change over ApoE−/− control; aorta, 28 days Ang II infusion. As to the method:
as §1, §2, §3, §4

For experiment [1], the system named is genes involved in the pathophysiology of AAA. Description: Drug inhibition effect on differentially expressed genes, overall. Particulars: for Down-regulation of genes involved in the pathophysiology of AAA: ApoE−/− + Ang II AAA model, summary of Table 2; for Total Score: sum of heat map grades over 25 genes, ApoE−/− + Ang II group scored 55. As to the method:
as §1, §2, §3, §4

For another experiment, the system named is aneurysm. In words: Aneurysm incidence over time, ApoE−/−+Ang II AAA model. Particulars: aneurysm = dissection or more than 50% increase in diameter, versus doxycycline and saline control. As to the method: as §1, §2
Aneurysm was defined as either the presence of dissection or more than 50% increase in diameter.

The test system of the next experiment is AAA. Description: Aortic diameter by ultrasonography, ApoE−/−+Ang II AAA model. Particulars: pretreatment 1 week before Ang II infusion, followed to 28 days, versus control and doxycycline. An excerpt: The ApoE^−/−+Ang II AAA model is well established and supported by current scientific literature. Mice genetically predisposed to hypercholesterolemia develop aneurysms when treated with angiotensin II. Aneurysms generally develop within the first week after pump implantation and share many important pathologic characteristics with human AAA disease. ApoE−/− mice used in this study were divided into different pretreatment groups: 1) Fluvastatin-MF; 2) Doxycycline-MD; 3) Irbesartan-MI; 4) Telmisartan-MT; 5) Control (water) and fed medicated chow or medicated drinking water 1 week prior to pump implantation. AngII (1000 ng·kg^−1 of body weight·min^−1) was infused subcutaneously via Alzet mini-osmotic pumps for 28 days. All mice were maintained on the medicated chow (MI & MT) or medicated drinking water (MF & MD) treatments which were delivered daily for a total of 28 days following pump implantation. In order to determine the effect of the various treatments on the progressive enlargement of the experimental AAAs the mice were followed with high frequency trans-abdominal ultrasound. Maximum aortic diameter was measured and recorded prior to pump implantation and then at 3, 7, 14, 21, and 28 days. All mice were sacrificed 28 days after pump implantation. Aortae were harvested and subjected to either histological analysis (Elastic Masson trichome, MAC2, CD31 and TUNEL staining) and analysis of mural gene expression. Plasma drug concentrations of experimental compounds were quantified on the day of sacrifice using high performance liquid chromatography (HPLC).

These results are taken from patent publication US20120239131A1, “METHODS AND APPARATUS FOR TREATMENT OF ANEURYSMAL TISSUE” (Medtronic Vascular, Inc., priority 2011, published 2012).

As to `CC(C)n1c(/C=C/C(O)CC(O)CC(=O)O)c(-c2ccc(F)cc2)c2ccccc21` (stereo not shown) [Fluvastatin], the Osteopontin expression entry with Osteopontin was “++++ (>10.1 = ++++)”. For the same compound, the Vav1 expression entry in the experiment on Vav1 is “++ (1.51 to 3 = ++)”. The MMP-12 expression result in the experiment on MMP-12 was “+++ (3.1 to 10 = +++)”. Further, the TNF-α expression result with TNF-α was “++ (1.51 to 3 = ++)”. For the same compound, the CCL2 expression entry with CCL2 is listed as “++ (1.51 to 3 = ++)”. The “Cathepsin S expression” value with Cathepsin S is “+++ (3.1 to 10 = +++)”. The MMP-8 expression entry with MMP-8 is “++++ (>10.1 = ++++)”. In addition, the ITGB2 expression result in the experiment with ITGB2 is given as “++ (1.51 to 3 = ++)”. Further, in the experiment on LOX, the LOX expression entry was “− (0 to 1 = −)”. Further, the Tgfβ1 expression result in the experiment with Tgfβ1 is listed as “+++ (3.1 to 10 = +++)”. The CCR2 expression entry in the experiment on CCR2 is on record as “+++ (3.1 to 10 = +++)”. Further, the “HMOX 1 expression” value with HMOX 1 is recorded as “+++ (3.1 to 10 = +++)”. For the same compound, in experiment [1], the “Down-regulation of genes involved in the pathophysiology of AAA” value is “down-regulating the expression of genes” and the “Total Score” value amounted to 45. In the experiment on aneurysm, the “Inhibition of aneurysm development (aneurysm incidence)” value is recorded as “effective in inhibiting aneurysm development”. In addition, the “Inhibition of aneurysm development/growth (aortic diameter)” value in the experiment on AAA is listed as “relative good inhibition of AAA”.

Turning to `CCCc1nc2c(C)cc(-c3nc4ccccc4n3C)cc2n1Cc1ccc(-c2ccccc2C(=O)O)cc1` [Telmisartan], the Osteopontin expression entry with Osteopontin is reported as “− (0 to 1 = −)”. For the same compound, the Vav1 expression result in the experiment on Vav1 is “− (0 to 1 = −)”. Moreover, the MMP-12 expression entry in the experiment with MMP-12 was “− (0 to 1 = −)”. Besides, the TNF-α expression entry in the experiment on TNF-α was “− (0 to 1 = −)”. For the same compound, in the experiment with CCL2, the CCL2 expression entry was “− (0 to 1 = −)”. For the same compound, the “Cathepsin S expression” value in the experiment on Cathepsin S is “− (0 to 1 = −)”. Also, the MMP-8 expression result in the experiment with MMP-8 is reported as “− (0 to 1 = −)”. Further, in the experiment with ITGB2, the ITGB2 expression entry is recorded as “− (0 to 1 = −)”. In the experiment on LOX, the LOX expression result is listed as “− (0 to 1 = −)”. Moreover, in the experiment with Tgfβ1, the Tgfβ1 expression entry is “− (0 to 1 = −)”. The CCR2 expression entry in the experiment on CCR2 is “− (0 to 1 = −)”. In addition, the “HMOX 1 expression” value with HMOX 1 is reported as “− (0 to 1 = −)”. In addition, in [1], the “Down-regulation of genes involved in the pathophysiology of AAA” value is on record as “down-regulating the expression of genes”. Further, the “Total Score” value in experiment [1] came to 6. Moreover, the “Inhibition of aneurysm development (aneurysm incidence)” value with aneurysm is on record as “inhibited aneurysm development well”; in the experiment on aneurysm (listed as telmisartan), “effective in inhibiting aneurysm development”. Also, the “Inhibition of aneurysm development/growth (aortic diameter)” value in the experiment with AAA is recorded as “effective in inhibiting aneurysm development”; with AAA (listed as telmisartan), “effective in inhibiting/preventing aneurysm development”.
